The molecules below were run against T1, CCR2 (Homo sapiens, UniProt P41597).
T1 sequence (P41597 1-360 isoform P41597-2): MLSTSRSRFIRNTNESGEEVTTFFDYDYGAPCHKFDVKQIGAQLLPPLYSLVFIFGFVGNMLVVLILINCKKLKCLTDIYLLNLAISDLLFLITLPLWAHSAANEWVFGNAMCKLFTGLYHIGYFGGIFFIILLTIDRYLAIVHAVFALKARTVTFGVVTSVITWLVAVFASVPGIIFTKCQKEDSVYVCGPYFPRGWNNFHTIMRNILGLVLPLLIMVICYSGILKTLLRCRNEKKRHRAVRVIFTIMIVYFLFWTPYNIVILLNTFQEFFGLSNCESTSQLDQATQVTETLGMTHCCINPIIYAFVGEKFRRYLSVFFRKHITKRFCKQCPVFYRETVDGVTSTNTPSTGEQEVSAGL

In order of rising IC50:
1. O=C(O)C(C1CCN(C(=S)Nc2ccc(Cl)c(Cl)c2)CC1)N1CCC(c2c[nH]c3ccccc23)CC1 (centres unmarked) [Cpd 64, [1-(3,4-dichloro-phenylthiocarbamoyl)-piperidin-4-yl]-[4-(1H-indol-3-yl)-piperidin-1-yl]-acetic acid]  20 nM
2. N=C(NC(=O)c1ccc(Cl)c(Cl)c1)N1CCC(C(C(=O)O)N2CCC(c3c[nH]c4ccccc34)CC2)CC1 (centres unmarked) [Cpd 50, {1-[(3,4-dichloro-benzoylamino)-imino-methyl]-piperidin-4-yl}-[4-(1H-indol-3-yl)-piperidin-1-yl]-acetic acid]  30 nM
3. N=C(NC(=O)c1cc(F)c(F)c(F)c1)N1CCC(C(C(=O)O)N2CCC(c3c[nH]c4ccccc34)CC2)CC1 (centres unmarked) [Cpd 52, {1-[imino-(3,4,5-trifluoro-benzoylamino)-methyl]-piperidin-4-yl}-[4-(1H-indol-3-yl)-piperidin-1-yl]-acetic acid]  30 nM
4. O=C(O)C(C1CCN(C(=S)Nc2cccc(Br)c2)CC1)N1CCC(c2c[nH]c3ccccc23)CC1 (centres unmarked) [Cpd 56, [1-(3-bromo-phenylthiocarbamoyl)-piperidin-4-yl]-[4-(1H-indol-3-yl)-piperidin-1-yl]-acetic acid]  60 nM
5. O=C(O)C(C1CCN(C(=S)Nc2cc(F)cc(F)c2)CC1)N1CCC(c2c[nH]c3ccccc23)CC1 (centres unmarked) [Cpd 55, [1-(3,5-difluoro-phenylthiocarbamoyl)-piperidin-4-yl]-[4-(1H-indol-3-yl)-piperidin-1-yl]-acetic acid]  115 nM
6. Cc1ccc(NC(=S)N2CCC(C(C(=O)O)N3CCC(c4c[nH]c5ccccc45)CC3)CC2)cc1 (centres unmarked) [Cpd 78, [4-(1H-indol-3-yl)-piperidin-1-yl]-(1-p-tolylthiocarbamoyl-piperidin-4-yl)-acetic acid]  140 nM
7. N=C(NC(=O)c1cccc(C(F)(F)F)c1)N1CCC(C(C(=O)O)N2CCC(c3c[nH]c4ccccc34)CC2)CC1 (centres unmarked) [Cpd 73, {1-[imino-(3-trifluoromethyl-benzoylamino)-methyl]-piperidin-4-yl}-[4-(1H-indol-3-yl)-piperidin-1-yl]-acetic acid]  150 nM
8. O=C(O)C(C1CCN(C(=O)/C=C/c2ccc(Cl)c(Cl)c2)CC1)N1CCC(c2ccc(Cl)cc2)CC1 (centres unmarked) [Cpd 1, [4-(4-chloro-phenyl)-piperidin-1-yl]-{1-[(2E)-3-(3,4-dichloro-phenyl)-acryloyl]-piperidin-4-yl}-acetic acid]  253 nM
9. N=C(NC(=O)c1cc(F)cc(F)c1)N1CCC(C(C(=O)O)N2CCC(c3c[nH]c4ccccc34)CC2)CC1 (centres unmarked) [Cpd 51, {1-[(3,5-difluoro-benzoylamino)-imino-methyl]-piperidin-4-yl}-[4-(1H-indol-3-yl)-piperidin-1-yl]-acetic acid]  300 nM
10. O=C(O)C(C1CCN(C(=O)/C=C/c2cc(F)c(F)c(F)c2)CC1)N1CCC(c2ccc(Cl)cc2)CC1 (centres unmarked) [Cpd 4, [4-(4-chloro-phenyl)-piperidin-1-yl]-{1-[(2E)-3-(3,4,5-trifluoro-phenyl)-acryloyl]-piperidin-4-yl}-acetic acid]  370 nM
11. O=C(O)C(C1CCN(C(=O)/C=C/c2cc(F)c(F)c(F)c2)CC1)N1CCC(Cc2c[nH]c3ccccc23)CC1 (centres unmarked) [Cpd 12, [4-(1H-indol-3-ylmethyl)-piperidin-1-yl]-{1-[(2E)-3-(3,4,5-trifluoro-phenyl)-acryloyl]-piperidin-4-yl}-acetic acid]  410 nM
12. O=C(O)C(C1CCN(C(=O)Nc2ccc(F)cc2)CC1)N1CCC(c2c[nH]c3ccccc23)CC1 (centres unmarked) [Cpd 90, [1-(4-fluoro-phenylcarbamoyl)-piperidin-4-yl]-[4-(1H-indol-3-yl)-piperidin-1-yl]-acetic acid]  480 nM
13. COc1ccc(C2CCN(C(C(=O)O)C3CCN(C(=O)/C=C/c4cc(F)c(F)c(F)c4)CC3)CC2)cc1 (centres unmarked) [Cpd 5, [4-(4-methoxy-phenyl)-piperidin-1-yl]-{1-[(2E)-3-(3,4,5-trifluoro-phenyl)-acryloyl]-piperidin-4-yl}-acetic acid]  840 nM
14. COc1ccc(NC(=O)N2CCC(C(C(=O)O)N3CCC(c4c[nH]c5ccccc45)CC3)CC2)cc1Cl (centres unmarked) [Cpd 67, [1-(3-chloro-4-methoxy-phenylcarbamoyl)-piperidin-4-yl]-[4-(1H-indol-3-yl)-piperidin-1-yl]-acetic acid]  845 nM
15. O=C(O)C(C1CCN(C(=O)Nc2ccc(Cl)cc2F)CC1)N1CCC(c2c[nH]c3ccccc23)CC1 (centres unmarked) [Cpd 117, [1-(4-chloro-2-fluoro-phenylcarbamoyl)-piperidin-4-yl]-[4-(1H-indol-3-yl)-piperidin-1-yl]-acetic acid]  1000 nM
16. O=C(O)C(C1CCN(C(=S)Nc2ccccc2)CC1)N1CCC(c2c[nH]c3ccccc23)CC1 (centres unmarked) [Cpd 43, [4-(1H-indol-3-yl)-piperidin-1-yl]-(1-phenylthiocarbamoyl-piperidin-4-yl)-acetic acid]  1100 nM
17. N=C(NC(=O)c1cccc(F)c1)N1CCC(C(C(=O)O)N2CCC(c3c[nH]c4ccccc34)CC2)CC1 (centres unmarked) [Cpd 54, {1-[(3-fluoro-benzoylamino)-imino-methyl]-piperidin-4-yl}-[4-(1H-indol-3-yl)-piperidin-1-yl]-acetic acid]  1400 nM
18. COc1ccc(/C=C/C(=O)N2CCC(C(C(=O)O)N3CCC(c4c[nH]c5ccccc45)CC3)CC2)cc1OC (centres unmarked) [Cpd 63, {1-[(2E)-3-(3,4-dimethoxy-phenyl)-acryloyl]-piperidin-4-yl}-[4-(1H-indol-3-yl)-piperidin-1-yl]-acetic acid]  1610 nM
19. O=C(O)C(C1CCN(C(=O)Nc2ccc(F)c(F)c2F)CC1)N1CCC(c2c[nH]c3ccccc23)CC1 (centres unmarked) [Cpd 125, [4-(1H-indol-3-yl)-piperidin-1-yl]-[1-(2,3,4-trifluoro-phenylcarbamoyl)-piperidin-4-yl]-acetic acid]  1700 nM
20. O=C(O)C(C1CCN(C(=O)Nc2cc(Cl)c(Cl)cc2Cl)CC1)N1CCC(c2c[nH]c3ccccc23)CC1 (centres unmarked) [Cpd 126, [4-(1H-indol-3-yl)-piperidin-1-yl]-[1-(2,4,5-trichloro-phenylcarbamoyl)-piperidin-4-yl]-acetic acid]  2100 nM
21. O=C(O)C(C1CCN(C(=O)/C=C/c2cc(F)cc(F)c2)CC1)N1CCC(Cc2c[nH]c3ccccc23)CC1 (centres unmarked) [Cpd 11, {1-[(2E)-3-(3,5-difluoro-phenyl)-acryloyl]-piperidin-4-yl}-[4-(1H-indol-3-ylmethyl)-piperidin-1-yl]-acetic acid]  2170 nM
22. O=C(O)C(C1CCN(C(=S)Nc2ccc(F)cc2F)CC1)N1CCC(c2c[nH]c3ccccc23)CC1 (centres unmarked) [Cpd 44, [1-(2,4-difluoro-phenylthiocarbamoyl)-piperidin-4-yl]-[4-(1H-indol-3-yl)-piperidin-1-yl]-acetic acid]  2700 nM
23. O=C(O)C(C1CCN(C(=O)NCc2ccc(Cl)c(Cl)c2)CC1)N1CCC(c2c[nH]c3ccccc23)CC1 (centres unmarked) [Cpd 84, [1-(3,4-dichloro-benzylcarbamoyl)-piperidin-4-yl]-[4-(1H-indol-3-yl)-piperidin-1-yl]-acetic acid]  2900 nM
24. COC(=O)C(C1CCN(C(=O)/C=C/c2cc(F)c(F)c(F)c2)CC1)N1CCC(c2c[nH]c3c(OC)cccc23)CC1 (centres unmarked) [Cpd 118, [4-(7-methoxy-1H-indol-3-yl)-piperidin-1-yl]-{1-[(2E)-3-(3,4,5-trifluoro-phenyl)-acryloyl]-piperidin-4-yl}-acetic acid methyl ester]  3200 nM
25. COC(=O)c1ccc(NC(=O)N2CCC(C(C(=O)O)N3CCC(c4c[nH]c5ccccc45)CC3)CC2)cc1 (centres unmarked) [Cpd 68, 4-[(4-{carboxy-[4-(1H-indol-3-yl)-piperidin-1-yl]-methyl}-piperidine-1-carbonyl)-amino]-benzoic acid methyl ester]  3550 nM
26. COC(=O)C(C1CCN(C(=O)/C=C/c2cc(F)cc(F)c2)CC1)N1CCC(c2ccc(OC)cc2)CC1 (centres unmarked) [Cpd 3, {1-[(2E)-3-(3,5-difluoro-phenyl)-acryloyl]-piperidin-4-yl}-[4-(4-methoxy-phenyl)-piperidin-1-yl]-acetic acid methyl ester]  3800 nM
27. COc1cccc2c(C3CCN(C(CO)C4CCN(C(=O)OC(C)(C)C)CC4)CC3)c[nH]c12 (centres unmarked) [Cpd 131, 4-{2-hydroxy-1-[4-(7-methoxy-1H-indol-3-yl)-piperidin-1-yl]-ethyl}-piperidine-1-carboxylic acid tert-butyl ester]  3900 nM
28. CN(C)CC(C1CCN(C(=O)/C=C/c2cc(F)cc(F)c2)CC1)N1CCC(c2c[nH]c3ccccc23)CC1 (centres unmarked) [Cpd 130, (2E)-3-(3,5-difluoro-phenyl)-1-(4-{2-dimethylamino-1-[4-(1H-indol-3-yl)-piperidin-1-yl]-ethyl}-piperidin-1-yl)-propenone]  8550 nM
29. O=C(O)C(C1CCN(C(=O)/C=C/c2cc(F)c(F)c(F)c2)CC1)N1CCC(n2ccc3ccccc32)CC1 (centres unmarked) [Cpd 10, (4-indol-1-yl-piperidin-1-yl)-{1-[(2E)-3-(3,4,5-trifluoro-phenyl)-acryloyl]-piperidin-4-yl}-acetic acid]  8600 nM
30. O=C(O)C(C1CCN(C(=O)Nc2ccc(Cl)cc2Cl)CC1)N1CCC(c2c[nH]c3ccccc23)CC1 (centres unmarked) [Cpd 111, [1-(2,4-dichloro-phenylcarbamoyl)-piperidin-4-yl]-[4-(1H-indol-3-yl)-piperidin-1-yl]-acetic acid]  11200 nM
31. COc1ccc(NC(=O)N2CCC(C(C(=O)O)N3CCC(c4c[nH]c5ccccc45)CC3)CC2)cc1 (centres unmarked) [Cpd 69, [4-(1H-indol-3-yl)-piperidin-1-yl]-[1-(4-methoxy-phenylcarbamoyl)-piperidin-4-yl]-acetic acid]  14200 nM
32. COc1ccc(NC(=O)N2CCC(C(C(=O)O)N3CCC(c4c[nH]c5ccccc45)CC3)CC2)cc1OC (centres unmarked) [Cpd 66, [1-(3,4-dimethoxy-phenylcarbamoyl)-piperidin-4-yl]-[4-(1H-indol-3-yl)-piperidin-1-yl]-acetic acid]  17700 nM

— patent US20060069123A1, “Substituted dipiperidine CCR2 antagonists” (priority 2004, published 2006)
